{"source": "paper PMC5916850", "about": "(Bioorganic & medicinal chemistry letters, 2018)", "data": [{"molecular_target": "GRK5 (Homo sapiens, UniProt P34947)", "sequence (P34947 whole entry, species assumed)": "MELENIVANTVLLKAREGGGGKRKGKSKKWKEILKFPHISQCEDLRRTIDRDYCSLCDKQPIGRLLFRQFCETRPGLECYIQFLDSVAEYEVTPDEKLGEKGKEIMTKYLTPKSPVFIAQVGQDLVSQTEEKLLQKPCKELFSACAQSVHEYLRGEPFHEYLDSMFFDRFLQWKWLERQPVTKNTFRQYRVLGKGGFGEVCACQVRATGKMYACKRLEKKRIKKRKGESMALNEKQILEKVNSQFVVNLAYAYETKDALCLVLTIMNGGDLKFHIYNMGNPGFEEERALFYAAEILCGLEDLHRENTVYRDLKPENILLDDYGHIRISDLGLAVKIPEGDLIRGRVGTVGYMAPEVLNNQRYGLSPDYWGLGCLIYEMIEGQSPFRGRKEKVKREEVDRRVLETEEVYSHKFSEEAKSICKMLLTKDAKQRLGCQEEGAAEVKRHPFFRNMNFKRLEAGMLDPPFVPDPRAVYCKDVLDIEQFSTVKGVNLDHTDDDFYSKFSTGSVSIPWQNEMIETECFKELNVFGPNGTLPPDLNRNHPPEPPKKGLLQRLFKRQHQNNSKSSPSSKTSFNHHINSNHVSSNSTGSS", "test": "GRK phosphorylation assay, GRK5", "settings": "average of three separate experiments run in duplicate; error = standard error of the mean", "values": [{"smiles": "CC1=C(C(=O)Nc2ccc3[nH]ncc3c2)C(c2ccc(F)c(C(=O)NC3CC4CCC3(C)C4(C)C)c2)NC(=O)N1", "note": "(stereo not shown) [Compound 32]", "GRK5 (IC50 μM)": "no sub-μM IC50 values"}, {"smiles": "C#CCN(CC(C)C)C(=O)Cc1cc(C2NC(=O)NC(C)=C2C(=O)Nc2ccc3[nH]ncc3c2)ccc1F", "note": "(stereo not shown) [Compound 38]", "GRK5 (IC50 μM)": "no sub-μM IC50 values"}, {"smiles": "CC1=C(C(=O)Nc2ccc3[nH]ncc3c2)C(c2ccc(F)c(C(=O)NC(C)CCCC(C)C)c2)NC(=O)N1", "note": "(stereo not shown) [Compound 47]", "GRK5 (IC50 μM)": "no sub-μM IC50 values"}, {"smiles": "CC1=C(C(=O)Nc2ccc3[nH]ncc3c2)C(c2ccc(F)c(CC(=O)N3CCCC(C(C)(C)C)CC3)c2)NC(=O)N1", "note": "(stereo not shown) [Compound 31]", "GRK5 (IC50 μM)": "no sub-μM IC50 values"}, {"smiles": "CC1=C(C(=O)Nc2ccc3[nH]ncc3c2)C(c2ccc(F)c(CCC(=O)N(CC(C)C)C(C)C)c2)NC(=O)N1", "note": "(stereo not shown) [Compound 41]", "GRK5 (IC50 μM)": "no sub-μM IC50 values"}, {"smiles": "COCCCC1CCCCN1C(=O)c1cc(C2NC(=O)NC(C)=C2C(=O)Nc2ccc3[nH]ncc3c2)ccc1F", "note": "(stereo not shown) [Compound 48]", "GRK5 (IC50 μM)": "no sub-μM IC50 values"}, {"smiles": "CCC(C)CN(CCO)C(=O)Cc1cc(C2NC(=O)NC(C)=C2C(=O)Nc2ccc3[nH]ncc3c2)ccc1F", "note": "(stereo not shown) [Compound 44]", "GRK5 (IC50 μM)": "no sub-μM IC50 values"}]}]}
